The test system of series [1] is Mycobacterium tuberculosis. The series is described as follows: Antitubercular activity against Mycobacterium tuberculosis H37Rv ATCC 27294 after 28 days by agar dilution method. It counts as functional. The following applies: H37Rv ATCC 27294, 672 h. Background: In agar dilution the substance is mixed into plates at graded concentrations.
Series [2] in a line: Cytotoxicity against mouse RAW264.7 cells assessed as inhibition of cell viability at 50 uM after 72 hrs by MTT assay relative to control. It is filed as cell-based. The note with it: read-out: INH. In general terms: Formazan colour is commonly taken as a measure of viable cells.
Series [3] concerns Mycobacterium tuberculosis. The series is described as follows: Potency index, ratio of ciprofloxacin MIC to compound MIC for Mycobacterium tuberculosis H37Rv ATCC 27294. It counts as functional.
For series [4], the system named is Mycobacterium tuberculosis. The series is described as follows: Potency index, ratio of pyrazinamide MIC to compound MIC for Mycobacterium tuberculosis H37Rv ATCC 27294. It is filed as functional.

In brackets after ≈: the same amount, converted by molar mass.

`Cc1ccc([C@@H]2[C@H]3CSCN3[C@]3(C(=O)Nc4ccccc43)[C@@]23C(=O)Oc2ccccc23)cc1` returned an MIC in series [1] of 12.5 µg/mL (≈ 27.5 µM).

Regarding `O=C1Oc2ccccc2[C@@]12[C@H](c1ccc(Br)cc1)[C@H]1CSCN1[C@]21C(=O)Nc2ccc(Br)cc21`, the cytotoxicity at 72 h, 50 µM in series [2] is 32.4%. Moreover, 3.12 µg/mL (≈ 5.22 µM) was the least that counted as inhibitory in series [1] (MIC).

As for `O=C1Oc2ccccc2[C@@]12[C@H](c1ccc([N+](=O)[O-])cc1)[C@H]1CSCN1[C@]21C(=O)Nc2ccc(Br)cc21`, the cytotoxicity at 72 h, 50 µM in series [2] turned out to be 43.1%. The compound also came in with an MIC in series [1] of 3.12 µg/mL (≈ 5.54 µM).

Consider `O=C(O)c1cn(C2CC2)c2cc(N3CCNCC3)c(F)cc2c1=O` [CIPROFLOXACIN], for which, in series [1], the MIC was found to be 3.13 µg/mL (≈ 9.45 µM).

For `Cc1ccc([C@@H]2[C@H]3CSCN3[C@]3(C(=O)Nc4ccc(Br)cc43)[C@@]23C(=O)Oc2ccccc23)cc1`, the minimum inhibitory concentration (MIC) in series [1] turned out to be 12.5 µg/mL (≈ 23.4 µM).

Regarding `CSc1ccc([C@@H]2[C@H]3CSCN3[C@]3(C(=O)Nc4ccccc43)[C@@]23C(=O)Oc2ccccc23)cc1`, in series [1], the MIC was 12.5 µg/mL (≈ 25.7 µM).

As to `NNC(=O)c1ccncc1` [ISONIAZID], the MIC in series [1] was found to be 0.05 µg/mL (≈ 0.365 µM).

Consider `NC(=O)c1cnccn1` [PYRAZINAMIDE], for which the minimal inhibitory concentration (MIC) in series [1] came to 6.25 µg/mL (≈ 50.8 µM).

Consider `O=C1Oc2ccccc2[C@@]12[C@H](c1ccc(Br)cc1)[C@H]1CSCN1[C@]21C(=O)Nc2ccccc21`, for which the cytotoxicity at 72 h, 50 µM in series [2] is 28.5%. Moreover, the MIC in series [1] is 3.12 µg/mL (≈ 6.02 µM).

In series [1], `CN1C[C@@H](c2ccccc2)[C@]2(C(=O)Oc3ccccc32)[C@@]12C(=O)Nc1ccccc12` registered a minimal inhibitory concentration (MIC) of 12.5 µg/mL (≈ 31.5 µM).

Consider `Cc1ccc([C@@H]2[C@H]3CSCN3[C@]3(C(=O)Nc4ccc([N+](=O)[O-])cc43)[C@@]23C(=O)Oc2ccccc23)cc1`, for which the MIC in series [1] is greater than 25 µg/mL.

`CSc1ccc([C@@H]2[C@H]3CSCN3[C@]3(C(=O)Nc4ccc([N+](=O)[O-])cc43)[C@@]23C(=O)Oc2ccccc23)cc1` gave an MIC in series [1] of 12.5 µg/mL (≈ 23.5 µM).

`COc1ccc([C@@H]2CN(C)[C@]3(C(=O)Nc4ccccc43)[C@@]23C(=O)Oc2ccccc23)cc1` came in with a minimum inhibitory concentration (MIC) in series [1] of 12.5 µg/mL (≈ 29.3 µM).

In the case of `CN1C[C@@H](c2ccc([N+](=O)[O-])cc2)[C@]2(C(=O)Oc3ccccc32)[C@@]12C(=O)Nc1ccccc12`, in series [2], the cytotoxicity at 72 h, 50 µM stood at 29.5%. This compound also displayed an MIC in series [1] of 3.12 µg/mL (≈ 7.08 µM).

`COc1ccc([C@@H]2[C@H]3CSCN3[C@]3(C(=O)Nc4ccc(Br)cc43)[C@@]23C(=O)Oc2ccccc23)cc1` gave an MIC in series [1] of 50 µg/mL (≈ 91 µM).

With `O=C1Oc2ccccc2[C@@]12[C@H](c1ccc([N+](=O)[O-])cc1)[C@H]1CSCN1[C@]21C(=O)Nc2ccccc21`, in series [2], the cytotoxicity at 72 h, 50 µM stood at 20.7%. Besides, the Ratio in series [3] is given as 2; in series [4], 4. The compound further returned an MIC in series [1] of 1.56 µg/mL (≈ 3.21 µM).

`O=C1Oc2ccccc2[C@@]12[C@H](c1ccc([N+](=O)[O-])cc1)[C@H]1CSCN1[C@]21C(=O)Nc2ccc([N+](=O)[O-])cc21` registered a minimum inhibitory concentration (MIC) in series [1] of 50 µg/mL (≈ 94.2 µM).

As to `O=C1Oc2ccccc2[C@@]12[C@H](c1ccccc1)[C@H]1CSCN1[C@]21C(=O)Nc2ccc([N+](=O)[O-])cc21`, the cytotoxicity at 72 h, 50 µM in series [2] is 35.2%. The same compound yielded a minimal inhibitory concentration (MIC) in series [1] of 3.12 µg/mL (≈ 6.44 µM).

With `CO[C@H]1/C=C/O[C@@]2(C)Oc3c(C)c(O)c4c(O)c(c(/C=N/N5CCN(C)CC5)c(O)c4c3C2=O)NC(=O)/C(C)=C\C=C\[C@H](C)[C@H](O)[C@@H](C)[C@@H](O)[C@@H](C)[C@H](OC(C)=O)[C@@H]1C` [RIFAMPIN], the lowest concentration to inhibit growth in series [1] (MIC) was 0.1 µg/mL (≈ 0.122 µM).

For `CN1C[C@@H](c2ccc(Cl)cc2)[C@]2(C(=O)Oc3ccccc32)[C@@]12C(=O)Nc1ccccc12`, the cytotoxicity at 72 h, 50 µM in series [2] was found to be 30.1%. Also, the lowest concentration to inhibit growth in series [1] (MIC) was 6.25 µg/mL (≈ 14.5 µM).

`O=C1Oc2ccccc2[C@@]12[C@H](c1ccc(Cl)cc1)[C@H]1CSCN1[C@]21C(=O)Nc2ccc(Br)cc21`: the cytotoxicity at 72 h, 50 µM in series [2] is 34.6%. The lowest concentration to inhibit growth in series [1] (MIC) was 3.12 µg/mL (≈ 5.64 µM).

With `CSc1ccc([C@@H]2CN(C)[C@]3(C(=O)Nc4ccccc43)[C@@]23C(=O)Oc2ccccc23)cc1`, in series [2], the cytotoxicity at 72 h, 50 µM worked out at 28.7%. This compound registered an MIC in series [1] of 3.12 µg/mL (≈ 7.06 µM).

Consider `O=C1Oc2ccccc2[C@@]12[C@H](c1ccccc1)[C@H]1CSCN1[C@]21C(=O)Nc2ccc(Br)cc21`, for which inhibition of growth in series [1] (MIC) required 25 µg/mL (≈ 48.1 µM).

For `COc1ccc([C@@H]2[C@H]3CSCN3[C@]3(C(=O)Nc4ccccc43)[C@@]23C(=O)Oc2ccccc23)cc1`, the cytotoxicity at 72 h, 50 µM in series [2] is 27.5%. In addition, the figures for the Ratio in series [3] and in series [4] were 2 and 4, respectively. The compound further yielded a minimum inhibitory concentration (MIC) in series [1] of 1.56 µg/mL (≈ 3.32 µM).

In series [1], `COc1ccc([C@@H]2[C@H]3CSCN3[C@]3(C(=O)Nc4ccc([N+](=O)[O-])cc43)[C@@]23C(=O)Oc2ccccc23)cc1` had an MIC of 25 µg/mL (≈ 48.5 µM).

With `O=C1Oc2ccccc2[C@@]12[C@H](c1ccc(Cl)cc1)[C@H]1CSCN1[C@]21C(=O)Nc2ccccc21`, the cytotoxicity at 72 h, 50 µM in series [2] came out at 32.3%. In addition, in series [1], the MIC turned out to be 3.12 µg/mL (≈ 6.58 µM).

In series [1], `O=C1Oc2ccccc2[C@@]12[C@H](c1ccc(Br)cc1)[C@H]1CSCN1[C@]21C(=O)Nc2ccc([N+](=O)[O-])cc21` showed an MIC of 12.5 µg/mL (≈ 22.1 µM).

On to `CSc1ccc([C@@H]2[C@H]3CSCN3[C@]3(C(=O)Nc4ccc(Br)cc43)[C@@]23C(=O)Oc2ccccc23)cc1`, for which the cytotoxicity at 72 h, 50 µM in series [2] was 28.1%. The same compound displayed an MIC in series [1] of 6.25 µg/mL (≈ 11.1 µM).

Compound `CC[C@@H](CO)NCCN[C@@H](CC)CO` [ETHAMBUTOL] displayed a minimal inhibitory concentration (MIC) in series [1] of 1.56 µg/mL (≈ 7.64 µM).

Turning to `O=C1Oc2ccccc2[C@@]12[C@H](c1ccccc1)[C@H]1CSCN1[C@]21C(=O)Nc2ccccc21`, in series [1], the lowest concentration to inhibit growth (MIC) was 25 µg/mL (≈ 56.8 µM).

The term MIC denotes the least concentration at which growth counts as inhibited.

Source of the values: ChEMBL document CHEMBL4000148, “Design of novel dispirooxindolopyrrolidine and dispirooxindolopyrrolothiazole derivatives as potential antitubercular agents” (Bioorg Med Chem Lett, 2015).
